Measurements from patent US12325697B2 (Nimbus Clio, Inc., priority 2021, dated 2025).

How the values were obtained:
[1] = molecular target: Recombinant human c-Cbl (aa 47-435) (Homo sapiens (Human), UniProt P22681); experiment: c-Cbl Biochemical Assay (TR-FRET)
Method: Recombinant human c-Cbl (aa 47-435) was expressed in E. coli, purified and biotinylated in vitro. The protein was diluted to 12 nM in freshly prepared assay buffer consisting of 50 mM HEPES, pH 7.0, 100 mM NaCl, 5 mM MgCl2, 0.01% Triton-X 100, 0.01% BSA and 1 mM DTT. Recombinant human Src (aa 254-536)-[…]-Zap-70 (aa 281-297) fusion protein was expressed in E. coli and purified. Protein was diluted in assay buffer to 5-20 nM and ATP was added to 1 mM. Recombinant human UBE2D2([…]) was expressed in E. coli, purified and ubiquitinated and Bodipy labelled in vitro. Protein was diluted to 200 nM in assay buffer without MgCl2 (or Cisbio PPI buffer). Streptavidin-Terbium was added to 2 nM and EDTA to 10 mM, to provide a binding assay mix. Compounds were dissolved in DMSO and diluted to prepare a ten-point half log dilution series. 100 nl of each compound concentration was dispensed in duplicate in a 384 well black assay plate using acoustic dispensing. Wells for maximum signal controls received 100 nl of DMSO only and wells for minimum controls received 100 nl of a reference inhibitor compound at a final assay concentration of […] to produce 100% inhibition. 5 μl of diluted c-cbl enzyme was added to all wells of the assay plate and incubated at RT for 30 min. The enzyme assay was initiated by addition of 5 μl of Src-Zap/ATP mix to all wells, and the plate incubated at RT for 60-90 min. The enzyme reaction was terminated and the binding reaction was initiated by adding 10 μl of binding assay mix to all wells and incubating the plate at RT for 60 min prior to assay read. Final assay conditions consisted of 6 nM c-cbl, 2.5-10 nM Src-Zap70, 0.5 mM ATP, 1% (v/v) DMSO (enzyme reaction) and 100 nM UBE2D2([…])-Ub-FL-BODIPY, 5 mM EDTA, 1 nM Streptavidin-Tb (binding reaction). The HTRF assay signal was measured at 520 nm on an Envision plate reader, with reference signal at 485 or 620 nm. Data was normalized using maximum and minimum assay controls: % Inhibition=100-(100*((maximum control)-unknown)/(maximum control-minimum control)). A 4-parameter dose-response equation was used to fit the normalized dose-response data and derive an IC50 for test compounds.

[2] = molecular target: Recombinant human Cbl-b (aa 36-427) (Homo sapiens (Human), UniProt Q13191); experiment: Cbl-b Biochemical Assay (TR-FRET); settings: read-out: TR-FRET hCbl-b IC50
Chain of Recombinant human Cbl-b (aa 36-427) (Q13191 36-427): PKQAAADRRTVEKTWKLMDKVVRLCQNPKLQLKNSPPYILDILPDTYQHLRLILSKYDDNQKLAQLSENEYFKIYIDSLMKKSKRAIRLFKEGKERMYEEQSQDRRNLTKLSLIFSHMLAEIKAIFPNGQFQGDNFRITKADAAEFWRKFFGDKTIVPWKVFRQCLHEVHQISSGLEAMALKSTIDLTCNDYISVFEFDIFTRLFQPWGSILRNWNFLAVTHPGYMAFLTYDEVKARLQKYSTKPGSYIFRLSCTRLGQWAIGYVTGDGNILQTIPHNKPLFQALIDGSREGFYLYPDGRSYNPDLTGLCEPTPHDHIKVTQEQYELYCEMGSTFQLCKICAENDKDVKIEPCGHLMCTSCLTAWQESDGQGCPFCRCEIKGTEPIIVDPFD
In short: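 Two-step TR-FRET: 6 nM biotinylated Cbl-b preincubated 30-60 min with compound, then 60 min at RT with 1-2.5 nM Src-Zap70 and 0.5 mM ATP in HEPES pH 7.0 buffer, 1% DMSO. Stopped with 5 mM EDTA plus 100 nM UBE2D2-Ub-FL-BODIPY and 1 nM streptavidin-Tb, 60 min; 520 nm signal; IC50 from 4-parameter fit.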

Chain of Recombinant human c-Cbl (aa 47-435) (P22681 47-435): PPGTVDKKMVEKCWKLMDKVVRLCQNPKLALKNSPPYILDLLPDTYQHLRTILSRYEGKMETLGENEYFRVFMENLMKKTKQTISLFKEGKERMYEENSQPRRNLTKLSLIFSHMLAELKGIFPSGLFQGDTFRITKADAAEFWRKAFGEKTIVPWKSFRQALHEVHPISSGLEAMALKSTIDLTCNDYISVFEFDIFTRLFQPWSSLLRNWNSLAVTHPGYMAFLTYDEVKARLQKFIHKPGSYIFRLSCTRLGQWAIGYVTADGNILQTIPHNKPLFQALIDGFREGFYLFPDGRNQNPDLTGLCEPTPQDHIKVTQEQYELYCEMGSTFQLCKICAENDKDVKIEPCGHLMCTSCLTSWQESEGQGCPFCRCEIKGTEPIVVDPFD

Structure (SMILES) | IC50 [1] [nM] | IC50 [2] [nM]
Cn1cnnc1-c1cc(C#N)ccc1-c1cc(C2CC2)nc(N2Cc3c(F)cc(CN4C[C@@]5(C)C[C@@H]4CO5)cc3C2=O)c1 [ANV-1, 4-(2-Cyclopropyl-6-(4-fluoro-6-(((1R,4R)-1-methyl-2-oxa-5-azabicyclo[2.2.1]heptan-5-yl)methyl)-1-oxoisoindolin-2-yl)pyridin-4-yl)-3-(4-methyl-4H-1,2,4-triazol-3-yl)benzonitrile] | ≤ 200 | ≤ 200
Cn1cnnc1-c1cc(C#N)ccc1-c1cc(C2CC2)nc(N2Cc3ccc(O)cc3C2=O)c1 [AJL-2, 4-(2-cyclopropyl-6-(6-hydroxy-1-oxoisoindolin-2-yl)pyridin-4-yl)-3-(4-methyl-4H-1,2,4-triazol-3-yl)benzonitrile] | ≤ 200 | ≤ 200
CN(Cc1cc(F)c2c(c1)C(=O)N(c1cc(-c3ccc(C#N)cc3-c3nncn3C)cc(C3CC3)n1)C2)C1CC1 [AMQ-2, 4-[2-Cyclopropyl-6-(6-{[cyclopropyl(methyl)amino]methyl}-4-fluoro-1-oxo-3H-isoindol-2-yl)pyridin-4-yl]-3-(4-methyl-1,2,4-triazol-3-yl)benzonitrile] | ≤ 200 | ≤ 200
CN1CC[C@@H](NCc2ccc3c(c2)C(=O)N(c2cc(-c4ccc(C#N)cc4-c4nncn4C)cc(C4CC4)n2)C3)C1=O [AIZ-2, 4-{2-Cyclopropyl-6-[6-({[(3R)-1-methyl-2-oxopyrrolidin-3-yl]amino}methyl)-1-oxo-3H-isoindol-2-yl]pyridin-4-yl}-3-(4-methyl-1,2,4-triazol-3-yl)benzonitrile] | ≤ 200 | ≤ 200
CN(Cc1ccc2c(c1)C(=O)N(c1cc(-c3ccc(Cl)cc3-c3nncn3C)cc(C3CC3)n1)C2)CC1(O)CCC1 [AMG-1, 2-(4-(4-Chloro-2-(4-methyl-4H-1,2,4-triazol-3-yl)phenyl)-6-cyclopropylpyridin-2-yl)-6-((((1-hydroxycyclobutyl)methyl)(methyl)amino)methyl)isoindolin-1-one] | ≤ 200 | ≤ 200
Cn1cnnc1-c1cc(C#N)ccc1-c1cc(C2CC2)nc(N2Cc3ccc(CN4CC(F)C4)cc3C2=O)c1 [ALJ-1, 4-(2-Cyclopropyl-6-{6-[(3-fluoroazetidin-1-yl)methyl]-1-oxo-3H-isoindol-2-yl}pyridin-4-yl)-3-(4-methyl-1,2,4-triazol-3-yl)benzonitrile] | ≤ 200 | ≤ 200
Cn1cnnc1-c1cc(C#N)ccc1-c1cc(C2CC2)nc(N2Cc3ccc(C(C)(C)NCC4CC4)cc3C2=O)c1 [ALL-2, 4-[2-Cyclopropyl-6-(6-{2-[(cyclopropylmethyl)amino]propan-2-yl}-1-oxo-3H-isoindol-2-yl)pyridin-4-yl]-3-(4-methyl-1,2,4-triazol-3-yl)benzonitrile] | ≤ 200 | ≤ 200
COCCNCc1cc(F)c2c(c1)C(=O)N(c1cc(-c3ccc(C#N)cc3-c3nncn3C)cc(C(F)(F)F)n1)C2 [ALN-2, 4-[2-(4-Fluoro-6-{[(2-methoxyethyl)amino]methyl}-1-oxo-3H-isoindol-2-yl)-6-(trifluoromethyl)pyridin-4-yl]-3-(4-methyl-1,2,4-triazol-3-yl)benzonitrile] | ≤ 200 | ≤ 200
CO[C@H](C)CNCc1ccc2c(c1)C(=O)N(c1cc(-c3ccc(C#N)cc3-c3nncn3C)cc(C3CC3)n1)C2 [AID-2, 4-{2-Cyclopropyl-6-[6-({[(2R)-2-methoxypropyl]amino}methyl)-1-oxo-3H-isoindol-2-yl]pyridin-4-yl}-3-(4-methyl-1,2,4-triazol-3-yl)benzonitrile] | ≤ 200 | ≤ 200
C[C@@H](NCC1COC1)c1ccc2c(c1)C(=O)N(c1cc(-c3ccc(C#N)cc3-c3nncn3C)cc(C3CC3)n1)C2 [ANN-2, (R)-4-(2-Cyclopropyl-6-(6-(1-((oxetan-3-ylmethyl)amino)ethyl)-1-oxoisoindolin-2-yl)pyridin-4-yl)-3-(4-methyl-4H-1,2,4-triazol-3-yl)benzonitrile] | ≤ 200 | ≤ 200
Cn1cnnc1-c1cc(C#N)ccc1-c1cc(C2CC2)nc(N2Cc3ccc(CN4CC5(COC5)C4)cc3C2=O)c1 [AOL-1, 4-[2-Cyclopropyl-6-(6-{2-oxa-6-azaspiro[3.3]heptan-6-ylmethyl}-1-oxo-3H-isoindol-2-yl)pyridin-4-yl]-3-(4-methyl-1,2,4-triazol-3-yl)benzonitrile] | ≤ 200 | ≤ 200
Cn1cnnc1-c1cc(C#N)ccc1-c1cc(C2CC2)nc(N2Cc3c(F)cc(CN[C@@]4(C)COC[C@H]4O)cc3C2=O)c1 (stereo in doubt) [AOG-1, 4-[2-Cyclopropyl-6-(4-fluoro-6-{[(4-hydroxy-3-methyloxolan-3-yl)amino]methyl}-1-oxo-3H-isoindol-2-yl)pyridin-4-yl]-3-(4-methyl-1,2,4-triazol-3-yl)benzonitrile] | ≤ 200 | ≤ 200
C[C@@H](NCC1CC1)c1ccc2c(c1)C(=O)N(c1cc(-c3ccc(C#N)cc3-c3nncn3C)cc(C3CC3)n1)C2 [AJJ-1, (R)-4-(2-Cyclopropyl-6-(6-(1-((cyclopropylmethyl)amino)ethyl)-1-oxoisoindolin-2-yl)pyridin-4-yl)-3-(4-methyl-4H-1,2,4-triazol-3-yl)benzonitrile] | ≤ 200 | ≤ 200
CCOCCNCc1ccc2c(c1)C(=O)N(c1cc(-c3ccc(C#N)cc3-c3nncn3C)cc(C3CC3)n1)C2 [AIN-2, 4-[2-cyclopropyl-6-(6-{[(2-ethoxyethyl)amino]methyl}-1-oxo-3H-isoindol-2-yl)pyridin-4-yl]-3-(4-methyl-1,2,4-triazol-3-yl)benzonitrile] | ≤ 200 | ≤ 200
Cn1cnnc1-c1cc(C#N)ccc1-c1cc(C2CC2)nc(N2Cc3c(F)cc(CN[C@]4(C)COC[C@@H]4O)cc3C2=O)c1 (relative stereo) [AOH-1, rel-4-{2-Cyclopropyl-6-[4-fluoro-6-({[(3R,4R)-4-hydroxy-3-methyloxolan-3-yl]amino}methyl)-1-oxo-3H-isoindol-2-yl]pyridin-4-yl}-3-(4-methyl-1,2,4-triazol-3-yl)benzonitrile] | ≤ 200 | ≤ 200
CCOc1cc(-c2ccc(F)cc2-c2nncn2C)cc(N2Cc3c(OC)cc(CO)cc3C2=O)n1 [AJC-1, 2-(6-Ethoxy-4-(4-fluoro-2-(4-methyl-4H-1,2,4-triazol-3-yl)phenyl)pyridin-2-yl)-6-(hydroxymethyl)-4-methoxyisoindolin-1-one] | ≤ 200 | ≤ 200
Cn1cnnc1-c1cc(C#N)ccc1-c1cc(C2CC2)nc(N2Cc3ccc(OC[C@H](O)CO)cc3C2=O)c1 [AJN-3, (R)-4-(2-Cyclopropyl-6-(6-(2,3-dihydroxypropoxy)-1-oxoisoindolin-2-yl)pyridin-4-yl)-3-(4-methyl-4H-1,2,4-triazol-3-yl)benzonitrile] | ≤ 200 | ≤ 200
Cn1cnnc1-c1cc(C#N)ccc1-c1cc(C2CC2)nc(N2Cc3ccc(C(C)(C)NCC4CCC4)cc3C2=O)c1 [AOS-2, 4-[2-(6-{2-[(Cyclobutylmethyl)amino]propan-2-yl}-1-oxo-3H-isoindol-2-yl)-6-cyclopropylpyridin-4-yl]-3-(4-methyl-1,2,4-triazol-3-yl)benzonitrile] | ≤ 200 | ≤ 200
Cn1cnnc1-c1cc(C#N)ccc1-c1cc(C2CC2)nc(N2Cc3c(F)cc(CN4CCC[C@H]4CF)cc3C2=O)c1 [APA-2, 4-[2-Cyclopropyl-6-(4-fluoro-6-{[(2S)-2-(fluoromethyl)pyrrolidin-1-yl]methyl}-1-oxo-3H-isoindol-2-yl)pyridin-4-yl]-3-(4-methyl-1,2,4-triazol-3-yl)benzonitrile] | ≤ 200 | ≤ 200
CN(Cc1ccc2c(c1)C(=O)N(c1cc(-c3ccc(F)cc3-c3nncn3C)cc(C3CC3)n1)C2)CC1(O)CCC1 [AJS-1, 2-(6-Cyclopropyl-4-(4-fluoro-2-(4-methyl-4H-1,2,4-triazol-3-yl)phenyl)pyridin-2-yl)-6-((((1-hydroxycyclobutyl)methyl) (methyl)amino)methyl)isoindolin-1-one] | ≤ 200 | ≤ 200
